{"source": "patent US20080051454A1", "about": "“Compositions and methods for transient receptor potential vanilloid (TRPV) channel mediated treatments” (The Board of Trustees Operating Michigan State University, priority 2006, published 2008)", "key": {"[1]": {"system": "rats fed either a high or normal sodium diet", "conditions": "rat, in vivo; cited from earlier work"}, "[2]": {"system": "Wistar rats", "assay": "Neonatal capsaicin treatment plus NS or HS diet: blood pressure, 8-isoprostane, creatinine clearance", "format": "in vivo, rat", "description": "(§1) Enhanced oxidative stress in kidneys of salt-sensitive hypertension: role of sensory nerves (Am J Physiol Heart Circ Physiol 291: H3136-H3143, 2006). To determine the mechanism(s) underlying enhanced oxidative stress in kidneys of salt-sensitive hypertension, neonatal Wistar rats were given vehicle or capsaicin (CAP, 50 mg/kg sc) on the first and second days of life. After being weaned, male rats were assigned into four groups and treated for 2 wk with the following: vehicle+a normal sodium diet (NS, 0.4%, CON-NS), vehicle+a high-sodium diet (HS, 4%, CON-HS), CAP+NS (CAP−NS), and CAP+HS (CAP−HS). […] Plasma and urinary 8-iso-prostaglandin F2alpha levels increased by approximately 40% in CON-HS and CAP−HS rats compared with their respective controls fed a NS diet (P≦0.05), and these parameters were higher in CAP−HS compared with CON-HS rats. Superoxide (O2—) levels in the renal cortex and medulla increased by approximately 45% in CAP−HS compared with CON-HS, CON-NS, and CAP−NS rats (P≦0.05)."}, "[3]": {"system": "renal tissues", "assay": "Capsaicin-induced CGRP release from renal tissues", "parameters": "species or system rat", "conditions": "Cap-HS and Cap-NS vs Con-NS and Con-HS", "from_the_text": "N¼5,_P<0.05 versus vehicle, capsazepine plus capsaicin and capsazepine; †P<0.001 versus capsaicin of control rats with a normal sodium diet (Con-NS) and capsaicin of control rats with a high sodium diet (Con-HS). Vehicle; capsaicin; capsazepine and capsaicin; capsazepine.\nTo examine renal sensory nerve function, renal CGRP release after stimulation of the renal sensory nerves with capsaicin was examined."}, "[4]": {"system": "Wistar rats fed a NS or HS diet for 10 days", "assay": "MAP responses to i.v. capsaicin with or without CAPZ in urethane-anesthetized rats", "format": "in vivo, rat", "conditions": "for decrease in MAP: in mmHg", "description": "Surgical Preparation Rats were anesthetized with ketamine and xylazine (80 and 4 mg/kg intraperitoneally, respectively) for cannulation or with urethane (1.5 g/kg intraperitoneally) for capsaicin administration. The left jugular vein, carotid and femoral artery were cannulated under anesthesia for injection of drugs or monitoring of mean arterial pressure (MAP) and heart rate (HR).\nEach dose of injection was separated by a 30-minute interval. To determine the specificity of capsaicin, CAPZ (3 mg/kg) was administered 10 minutes before capsaicin injection in a separate group."}, "[5]": {"system": "renal cortex and medulla", "assay": "Neonatal capsaicin treatment plus NS or HS diet: renal superoxide, SOD and NAD(P)H oxidase subunits", "parameters": "species or system rat", "conditions": "for renal cortical Cu/Zn SOD activity / renal cortical Cu/Zn SOD protein expression / renal cortical Mn SOD activity / renal cortical Mn SOD protein expression / renal cortical O2— production / renal cortical gp91 phox protein expression / renal cortical p47phox protein expression / renal medullary Cu/Zn SOD activity / renal medullary Cu/Zn SOD protein expression / renal medullary Mn SOD activity / renal medullary Mn SOD protein expression / renal medullary O2— production / renal medullary p47phox protein expression: neonatal CAP", "description": "as §1, with “(P≦0.05). […]” for “(P≦0.05).”"}, "[6]": {"system": "rats", "conditions": "dose-dependent; abolished by TRPV1 blockade or ipsilateral renal denervation; cited from earlier work"}, "[7]": {"system": "hearts of TRPV1−/− mice", "assay": "Langendorff perfused heart, ischemia and reperfusion (I/R) with OLDA, TRPV1-null", "parameters": "species or system mouse", "description": "(§2) The following measurements were made on the two types of heart tissue: left ventricular end-diastolic pressure (LVEDP), left ventricular developed pressure (LVDP), coronary flow (CF), and left ventricular (LV) peak positive rate of pressure change/rate of time change (+dP/dt) were evaluated after I/R."}, "[8]": {"system": "hearts of WT mice", "assay": "Langendorff perfused heart, ischemia and reperfusion (I/R) with OLDA, wild type", "parameters": "species or system mouse", "conditions": "OLDA 1.5×10^−7M; WT", "description": "as §2"}, "[9]": {"biological_target": "transient receptor potential vanilloid type 1 (TRPV1) channel (Homo sapiens, UniProt Q8NER1)", "sequence (Q8NER1 whole entry, species assumed)": "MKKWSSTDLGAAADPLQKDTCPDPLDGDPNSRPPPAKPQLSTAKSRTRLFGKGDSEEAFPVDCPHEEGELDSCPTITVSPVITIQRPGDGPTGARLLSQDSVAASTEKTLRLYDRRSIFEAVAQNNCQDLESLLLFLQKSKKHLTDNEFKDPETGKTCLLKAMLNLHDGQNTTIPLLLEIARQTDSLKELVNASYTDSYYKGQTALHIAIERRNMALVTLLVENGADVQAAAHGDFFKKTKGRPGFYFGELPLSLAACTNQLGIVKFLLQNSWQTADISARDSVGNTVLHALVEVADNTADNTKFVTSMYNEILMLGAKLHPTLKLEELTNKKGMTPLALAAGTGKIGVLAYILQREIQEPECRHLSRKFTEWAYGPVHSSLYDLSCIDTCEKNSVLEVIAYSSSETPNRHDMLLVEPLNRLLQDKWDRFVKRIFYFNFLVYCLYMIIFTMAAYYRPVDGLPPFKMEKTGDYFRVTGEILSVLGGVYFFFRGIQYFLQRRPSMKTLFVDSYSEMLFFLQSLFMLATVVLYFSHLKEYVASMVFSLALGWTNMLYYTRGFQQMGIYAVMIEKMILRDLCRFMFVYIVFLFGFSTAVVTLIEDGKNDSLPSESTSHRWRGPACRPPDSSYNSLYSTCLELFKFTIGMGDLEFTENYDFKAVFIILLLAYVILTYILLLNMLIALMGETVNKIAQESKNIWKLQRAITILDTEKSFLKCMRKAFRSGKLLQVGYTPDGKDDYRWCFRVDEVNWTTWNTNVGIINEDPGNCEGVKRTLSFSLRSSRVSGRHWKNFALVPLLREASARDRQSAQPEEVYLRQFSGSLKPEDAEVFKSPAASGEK", "conditions": "in vitro; cited from earlier work"}, "[10]": {"system": "WT and TRPV1−/− hearts", "assay": "OLDA-induced CGRP and SP release from hearts (radioimmunoassay)", "parameters": "species or system mouse"}, "[11]": {"conditions": "CAP−HS compared with CON-HS, CON-NS, CAP−NS"}}}
{"smiles": "COc1cc(CNC(=O)CCCC/C=C/C(C)C)ccc1O", "note": "[capsaicin, (E)-N-(4-hydroxy-3-methoxybenzyl)-8-methylnon-6-enamide]", "values": [{"measurement": "MAP", "setting": "[1]", "value": "decrease in MAP"}, {"measurement": "plasma CGRP levels", "setting": "[1]", "value": "increase in plasma CGRP levels"}, {"measurement": "decrease in creatinine clearance", "setting": "[2]; [11]", "value": 45, "unit": "%"}, {"measurement": "increase in plasma and urinary 8-iso-prostaglandin F2alpha levels", "setting": "[2]; CAP−HS compared with control fed a NS diet", "value": "approximately 40%"}, {"measurement": "plasma and urine 8-isoprostane levels", "setting": "[2]; neonatal CAP, NS diet", "value": "did not increase"}, {"measurement": "renal CGRP release in response to 1 mmol/l capsaicin in capsaicin-pretreated vs control rats", "setting": "[3]", "value": "significantly lower"}, {"measurement": "decrease in MAP", "setting": "[4]; CAP 10 μg/kg iv, HS", "value": "11±2"}, {"measurement": "decrease in MAP", "setting": "[4]; CAP 10 μg/kg iv, NS", "value": "6±1"}, {"measurement": "decrease in MAP", "setting": "[4]; CAP 30 μg/kg iv, HS", "value": "21±3"}, {"measurement": "decrease in MAP", "setting": "[4]; CAP 30 μg/kg iv, NS", "value": "12 ±2"}, {"measurement": "decrease in MAP (depressor effect)", "setting": "[4]; capsaicin 10 μg/kg iv, HS", "value": "11±2", "unit": "mmHg"}, {"measurement": "decrease in MAP (depressor effect)", "setting": "[4]; capsaicin 10 μg/kg iv, NS", "value": "6±1", "unit": "mmHg"}, {"measurement": "decrease in MAP (depressor effect)", "setting": "[4]; capsaicin 30 μg/kg iv, HS", "value": "21±3", "unit": "mmHg"}, {"measurement": "decrease in MAP (depressor effect)", "setting": "[4]; capsaicin 30 μg/kg iv, NS", "value": "12±2", "unit": "mmHg"}, {"measurement": "increase in superoxide levels in renal cortex and medulla", "setting": "[5]; [11]", "value": "approximately 45%"}, {"measurement": "renal cortical Cu/Zn SOD activity", "setting": "[5]; HS", "value": "74.6 9.6 mU/mg protein"}, {"measurement": "renal cortical Cu/Zn SOD protein expression", "setting": "[5]; HS", "value": "0.39 0.05 %-actin arbitrary units"}, {"measurement": "renal cortical Mn SOD activity", "setting": "[5]; HS", "value": "14.3 3.5 mU/mg protein"}, {"measurement": "renal cortical Mn SOD protein expression", "setting": "[5]; HS", "value": "0.10 0.01 %-actin arbitrary units"}, {"measurement": "renal cortical O2— production", "setting": "[5]; HS", "value": "3.53 0.46 nmol_min—1_mg dry wt—1"}, {"measurement": "renal cortical gp91 phox protein expression", "setting": "[5]; HS", "value": "0.21 0.03 arbitrary units"}, {"measurement": "renal cortical p47phox protein expression", "setting": "[5]; HS", "value": "0.07 0.01 arbitrary units"}, {"measurement": "renal medullary Cu/Zn SOD activity", "setting": "[5]; HS", "value": "101.7 11.6 mU/mg protein"}, {"measurement": "renal medullary Cu/Zn SOD protein expression", "setting": "[5]; HS", "value": "0.41 0.05 %-actin arbitrary units"}, {"measurement": "renal medullary Mn SOD activity", "setting": "[5]; HS", "value": "27.1 4.2 mU/mg protein"}, {"measurement": "renal medullary Mn SOD protein expression", "setting": "[5]; HS", "value": "0.13 0.02 %-actin arbitrary units"}, {"measurement": "renal medullary O2— production", "setting": "[5]; HS", "value": "2.32 0.29 nmol_min—1_mg dry wt—1"}, {"measurement": "renal medullary p47phox protein expression", "setting": "[5]; HS", "value": "0.1 0.01 arbitrary units"}, {"measurement": "renal cortical Cu/Zn SOD activity", "setting": "[5]; NS", "value": "54.8 7.6 mU/mg protein"}, {"measurement": "renal cortical Cu/Zn SOD protein expression", "setting": "[5]; NS", "value": "0.29 0.05 %-actin arbitrary units"}, {"measurement": "renal cortical Mn SOD activity", "setting": "[5]; NS", "value": "10.4 2.5 mU/mg protein"}, {"measurement": "renal cortical Mn SOD protein expression", "setting": "[5]; NS", "value": "0.07 0.01 %-actin arbitrary units"}, {"measurement": "renal cortical O2— production", "setting": "[5]; NS", "value": "2.35 0.55 nmol_min—1_mg dry wt—1"}, {"measurement": "renal cortical gp91 phox protein expression", "setting": "[5]; NS", "value": "0.17 0.03 arbitrary units"}, {"measurement": "renal cortical p47phox protein expression", "setting": "[5]; NS", "value": "0.05 0.01 arbitrary units"}, {"measurement": "renal medullary Cu/Zn SOD activity", "setting": "[5]; NS", "value": "67.0 7.6 mU/mg protein"}, {"measurement": "renal medullary Cu/Zn SOD protein expression", "setting": "[5]; NS", "value": "0.27 0.05 %-actin arbitrary units"}, {"measurement": "renal medullary Mn SOD activity", "setting": "[5]; NS", "value": "18.7 3.8 mU/mg protein"}, {"measurement": "renal medullary Mn SOD protein expression", "setting": "[5]; NS", "value": "0.09 0.02 %-actin arbitrary units"}, {"measurement": "renal medullary O2— production", "setting": "[5]; NS", "value": "1.43 0.40 nmol_min—1_mg dry wt—1"}, {"measurement": "renal medullary p47phox protein expression", "setting": "[5]; NS", "value": "0.07 0.01 arbitrary units"}, {"measurement": "Uflow and UNa", "setting": "[6]", "value": "Increases"}]}
{"smiles": "CCCCCCCC/C=C\\CCCCCCCC(=O)NCCc1ccc(O)c(O)c1", "note": "[OLDA, N-oleoyl-dopamine]", "values": [{"measurement": "protective effect in TRPV1−/− hearts", "setting": "[7]", "value": "void"}, {"measurement": "LV peak positive dP/dt (+dP/dt) after I/R", "setting": "[7]; OLDA 1.5×10^−7M, TRPV1−/−", "value": "1967±299", "unit": "mmHg/s"}, {"measurement": "coronary flow (CF) after I/R", "setting": "[7]; OLDA 1.5×10^−7M, TRPV1−/−", "value": "53±2", "unit": "%"}, {"measurement": "left ventricular developed pressure (LVDP) after I/R", "setting": "[7]; OLDA 1.5×10^−7M, TRPV1−/−", "value": "39.8±3.7", "unit": "mmHg"}, {"measurement": "left ventricular end-diastolic pressure (LVEDP) after I/R", "setting": "[7]; OLDA 1.5×10^−7M, TRPV1−/−", "value": "29.9±3.5", "unit": "mmHg"}, {"measurement": "LV peak positive dP/dt (+dP/dt) after I/R", "setting": "[8]", "value": "3227±126", "unit": "mmHg/s"}, {"measurement": "coronary flow (CF) after I/R", "setting": "[8]", "value": "76±6", "unit": "%"}, {"measurement": "left ventricular developed pressure (LVDP) after I/R", "setting": "[8]", "value": "61.3±3.8", "unit": "mmHg"}, {"measurement": "left ventricular end-diastolic pressure (LVEDP) after I/R", "setting": "[8]", "value": "10.1±0.6", "unit": "mmHg"}, {"measurement": "potency relative to capsaicin", "setting": "[9]", "value": "at least 30 times"}, {"measurement": "CGRP and SP release in WT compared to TRPV1−/− hearts", "setting": "[10]", "value": "significantly higher"}]}
